{"source": "patent US7132504B2", "about": "“Hepatitis C virus inhibitors” (Bristol-Myers Squibb Company, priority 2003, dated 2006)", "system": "HCV replicon in Huh7 cells", "assay": "HCV replicon cell-based assay (FRET)", "design": "species or system HCV strain 1b", "conditions": "Hepatitis C virus", "excerpt": "An HCV replicon whole cell system was established as described by Lohmann V, Korner F, Koch J, Herian U, Theilmann L, Bartenschlager R., Science 285(5424):110–3 (1999). This system enabled us to evaluate the effects of our HCV Protease compounds on HCV RNA replication. Briefly, using the HCV strain 1b sequence described in the Lohmann paper (Assession number:AJ238799), an HCV cDNA was generated encoding the 5′ internal ribosome entry site (IRES), the neomycin resistance gene, the EMCV (encephalomyocarditis viurs)-IRES and the HCV nonstructural proteins, NS3–NS5B, and 3′ non-translated region (NTR). In vitro transcripts of the cDNA were transfected into the human hepatoma cell line, Huh7. […] Resulting cell lines were characterized for positive and negative strand RNA production and protein production over time.\nHuh7 cells, constitutively expressing the HCV replicon, were grown in Dulbecco's Modified Eagle Media (DMEM) containing 10% Fetal calf serum (FCS) and 1 mg/ml G418 (Gibco-BRL). Cells were seeded the night before (1.5×10^4 cells/well) in 96-well tissue-culture sterile plates. Compound and no compound controls were prepared in DMEM containing 4% FCS, 1:100 Penicillin/Streptomysin, 1:100 L-glutamine and 5% DMSO in the dilution plate (0.5% DMSO final concentration in the assay). Compound/DMSO mixes were added to the cells and incubated for 4 days at 37° C. After 4 days, plates were rinsed thoroughly with Phosphate-Buffered Saline (PBS) (3 times 150 μl). The cells were lysed with 25 μl of a lysis assay reagent containing the FRET peptide (RET S1, as described for the in vitro enzyme assay). The lysis assay reagent was made from 5× cell Luciferase cell culture lysis reagent (Promega #E153A) diluted to 1× with distilled water, NaCl added to 150 mM final, the FRET peptide diluted to 10 μM final from a 2 mM stock in 100% DMSO. The plate was then placed into the Cytofluor 4000 instrument which had been set to 340 nm excitation/490 nm emission, automatic mode for 21 cycles and the plate read in a kinetic mode. EC50 determinations were carried out as described for the IC50 determinations. […]\nThe percentage inhibition was calculated using the formula below: […]\nThe values were graphed and analyzed using XLFit to obtain the EC50 value.", "note": "Where two headings read alike, the source gives them in different places.", "data": [{"compound": "C=CC1C[C@]1(NC(=O)[C@@H]1C[C@@H](Oc2cc(-c3ccccc3)nc3cc(OC)ccc23)CN1C(=O)[C@@H](NC(=O)OC)C(C)(C)C)C(=O)NS(=O)(=O)N(C)Cc1ccccc1", "note": "(some centres unmarked) [Compound 9]", "values": [{"measurement": "EC50", "setting": "Huh-7, 96 h, 4 days, read-out: Activity Range EC50", "result": "150 to 1500", "unit": "nM"}, {"measurement": "EC50", "setting": "Huh-7, read-out: EC50 value in the replicon assay", "result": 403, "unit": "nM"}]}]}
